The values that follow come from US6747149B2, “Glucamine salts for treating hepatitis virus infections” (G. D. Searle & Co., priority 1999, dated 2004).

Data set [1] deals with HepG2.2.15 Cells. Briefly: Viability of HepG2.2.15 cells, trypan blue exclusion. Type of data set: cell-based. Particulars: 3 days, cells excluding trypan blue. As for the experimental part: (§1) The anti-hepatitis B virus activity and effect on cell viability of a number of different N-substituted-1,5-dideoxy-1,5-imino-D-glucitol compounds were assessed using an in vitro assay employing chronically hepatitis B virus secreting HepG2.2.15 cells. The method employed was essentially that described in Block et al. (1994) Proc. Natl. Acad. Sci. USA 91:2235-2239.

A further data set deals with Hepatitis B Virus. Briefly: Hepatitis B virus secretion by chronically HBV secreting HepG2.2.15 cells (immunoprecipitated virion DNA, PCR). The note with it: for [] for 90% HBV secretion inhibition: based upon duplicate PCR results; for Relative amount of HBV secreted As A % of Control: 3 days, preS1 immunoprecipitation, PCR. In kind it is cell-based. As for the experimental part:
as §1

Data set [2] concerns woodchuck hepatitis virus (WHV). The experiment in a line: Woodchuck model, N-nonyl-DNJ alone, BID oral dosing. Type of data set: in vivo. The text has this: In order to evaluate the efficacy of N-nonyl-DNJ in combination with 3TC (or other nucleoside or nucleotide analogs) against Hepatitis B virus in a woodchuck animal model, an monotherapy experiment using N-nonyl-DNJ alone was first conducted. This was necessary to determine if N-nonyl-DNJ has any anti-HBV effect in the woodchuck and, if N-nonyl-DNJ has a beneficial effect, to design a combination study based on the dose-response relationship of this drug alone.
Therefore, five groups of four animals each (all groups had both sexes, all but the control had two of each sex) were assigned to 0, 12.5, 25, 50, and 100 mg/kg/day with BID oral dosing. These were lab-reared wild animals. All animals were infected with woodchuck hepatitis virus (WHV) as neonates, and had been tested positive on serological tests for WHV surface antigen. Blood samples were drawn one week prior to dosing (−1 week), immediately before dosing (0 weeks), weekly during dosing (1, 2, 3, and 4 weeks), and after the end of dosing (5, 6, 8, and 10 weeks).
(§2) There are two measures of drug efficacy: reduction in total HBV DNA (measured by quantitative PCR), and reduction in HBV DNA from capsids with intact surface glycoproteins, which is the active form of the virus (measured by an ELISA-like immune precipitation assay followed by quantitative PCR).
Before models are fitted to the data, a log transform was applied because: 1) the variation in IPDNA increases with increasing IPDNA values; the log transformation gives values with a nearly constant variation, and 2) it is expected that drug effects will appear as a constant multiplier of the IPDNA level. Because there are zero values of IPDNA, a small value (about ½ of the smallest non-zero value) was added to all values before the log transform.
Two approaches were used to model the changes in slope to week with dose of N-nonyl-DNJ: a linear modeling approach and a nonlinear model. Both approaches assume that the (linear) rate of change of the Log(IPDNA) measure over the dosing period is the “right” measure to reflect the effect of the drug on the virus. Both approaches are fit in stages, and the first stage is common to both approaches. First, a simple straight line regression model is fit using weeks 0-4 to predict log(IPDNA_+—10) separately for each animal by run combination. In the second stage, the response variable is the slope fitted in the first stage.
For the linear approach, a model is fit with slope to week as the response where run is considered a block, dose has a significant effect (almost all of this effect is due to a slope to dose), and the relevant error for testing the effect of dose is the variation among animals treated alike (after the adjustment for the runs as blocks). This is similar to using the calibration data within each run to first adjust each run's data to a common virus DNA concentration; the difference is that here the data from the woodchucks are used for the run adjustment rather than only the calibration data.
For the nonlinear approach, a four parameter logistic model is fit with the slope to week as the response and the dose as the predictor. Again, run is considered a block, but because no run has all weeks, it is not possible to fully reflect the blocking in the nonlinear approach. […]

The subject of another data set is HBV. The experiment in a line: Cell culture experiments with N-nonyl-DNJ: total HBV DNA and immune precipitated DNA. In kind it is cell-based, hepatitis B virus.
Text: as §2

Data set [3] deals with HepG2.2.15 Cells. Briefly: MTT-based colorimetric assay of cell viability. As for the experimental part:
as §1

Like-named read-outs stand apart in the source and are kept apart here. Marks after values point to notes of the source that are not given here. Bounds are passed on as bounds.

Regarding `CCCCN1C[C@H](OC(C)=O)[C@@H](OC(C)=O)[C@H](OC(C)=O)[C@H]1COC(C)=O` [Example 2, 1,5-(Butylimino)-1,5-dideoxy-D-glucitol, Tetraacetate], the “% Viable +/− 1 S.D.” value is given as 90 +/− 6 (n = 4) % with HepG2.2.15 Cells [1] (concentration [200]) and 89 +/− 4 (n = 4) % with HepG2.2.15 Cells [1] (concentration [1000]). The “[] for 90% HBV secretion inhibition” value with Hepatitis B Virus is on record as >200*s* microgs per ml. Besides, the figures for the “Relative amount of HBV secreted As A % of Control” value in the data set with Hepatitis B Virus (concentration [200]) and in the data set with Hepatitis B Virus (concentration [1000]) were 107.0 +/− 12 (n = 3) % and 38.0 +/− 15 (n = 3) %, respectively.

With `CCCCCCCCCN1C[C@H](O)[C@@H](O)[C@H](O)[C@H]1CO` [N-nonyl-DNJ, N-(n-nonyl)-1,5-dideoxy-1,5-imino-D-glucitol], in data set [2] (all dose levels, pre-dose and dosed portions, quantitative PCR), the “effect on total HBV DNA measurements” value is “no effect”. Further, in data set [2] (decrease of IPDNA, dosing weeks 0-4), the “average minimum slope observed” value was 0.31 fewer Log(IPDNA g/mL)/week. Also, the “decrease of IPDNA at average minimum slope” value in data set [2] (dosing weeks 0-4) is on record as “about 25 %/week”. Besides, the “slope of IPDNA levels over the dosing period due to dose or plasma level” value in data set [2] (weeks 0-4, straight line fitted per animal) is on record as “significant difference in the slope”. Moreover, the “approximate effective monotherapy dose” value in data set [2] (woodchucks) is on record as “about 16 mg/kg/day”. Further, in the data set with HBV, the “effect on the immune precipitated DNA (IPDNA)” value was “marked effect” and the “effect on total HBV DNA” value is “little or no effect”.

On to `CCCCN1C[C@H](O)[C@@H](O)[C@H](O)[C@H]1CO` [NBDNJ, N-(n-butyl-)-1,5-dideoxy-1,5-imino-D-glucitol], for which, in the data set with Hepatitis B Virus, the “[] for 90% HBV secretion inhibition” value is 0.5-1.0* microgs per ml. Besides, the “Relative amount of HBV secreted As A % of Control” value in the data set on Hepatitis B Virus (concentration [200]) is 37.0 +/− 13 (n = 15) %; in the data set on Hepatitis B Virus (concentration [200], listed as 1) it was 85.0 +/− 5 (n = 8) %; in the data set on Hepatitis B Virus (concentration [1000]), 3.2 +/− 5 (n = 15) %; in the data set with Hepatitis B Virus (concentration [1000], listed as 1) it was 35.0 +/− 6 (n = 8) %. Moreover, the “[] for a 50% reduction in MMT” value with HepG2.2.15 Cells [3] is 100-200 microgs per ml.

“N-[2-(4-Trifluoromethylphenyl)-ethyl]-glucamine [Example 7]”: the “[] for 90% HBV secretion inhibition” value in the data set on Hepatitis B Virus is on record as >200** microgs per ml. Also, in the data set with HepG2.2.15 Cells [3] (HepG2.2.15 cells), the “[] for a 50% reduction in MMT” value is on record as >200 microgs per ml.
